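Each compound was tested at five concentrations against cells in 96-well plates for 48 hours. The concentration for 50% growth inhibition is given as GI50.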 Active and inactive are the calls of the source. Cut-off read from the data, not from the text of the source: active = GI50 up to about 1.1 µM and inactive = higher.
What was measured:
Test in all cases: NCI-60 cell line screen, 48 h
DU-145 = system: DU-145
CCRF-CEM = system: CCRF-CEM
UACC-257 = system: UACC-257
OVCAR-4 = system: OVCAR-4
UACC-62 = system: UACC-62
NCI-H23 = system: NCI-H23
PC-3 = system: PC-3
EKVX = system: EKVX
OVCAR-8 = system: OVCAR-8
OVCAR-3 = system: OVCAR-3
SW-620 = system: SW-620
HOP-62 = system: HOP-62
BT-549 = system: BT-549
SK-OV-3 = system: SK-OV-3
SNB-19 = system: SNB-19
IGROV-1 = system: IGROV-1
RPMI-8226 = system: RPMI-8226
786-0 = system: 786-0
HCT-15 = system: HCT-15
CAKI-1 = system: CAKI-1
RXF 393 = system: RXF 393
SR = system: SR
NCI-H460 = system: NCI-H460
SN12C = system: SN12C
A498 = system: A498
NCI-H226 = system: NCI-H226
U-251 = system: U-251
SK-MEL-5 = system: SK-MEL-5
HCT-116 = system: HCT-116
MOLT-4 = system: MOLT-4
ACHN = system: ACHN
HL-60 = system: HL-60
HCC 2998 = system: HCC 2998
SF-295 = system: SF-295
LOX IMVI = system: LOX IMVI
HT-29 = system: HT-29
COLO 205 = system: COLO 205
KM12 = system: KM12
MCF7 = system: MCF7
T47D = system: T47D
Malme-3M = system: Malme-3M
SK-MEL-2 = system: SK-MEL-2
MDA-MB-231 = system: MDA-MB-231
K562 = system: K562
SNB-75 = system: SNB-75
HOP-92 = system: HOP-92
NCI/ADR-RES = system: NCI/ADR-RES
SF-268 = system: SF-268
UO-31 = system: UO-31
SK-MEL-28 = system: SK-MEL-28
Hs-578T = system: Hs-578T
MDA-MB-435 = system: MDA-MB-435
MDA-N = system: MDA-N
NCI-H522 = system: NCI-H522
SF-539 = system: SF-539
A549 = system: A549
OVCAR-5 = system: OVCAR-5
M14 = system: M14
TK-10 = system: TK-10

CC(C)Cn1cnc2c(Cl)nc3ccccc3c21
GI50 (DU-145): 73.8 µM (inactive) | GI50 (CCRF-CEM): 53.2 µM (inactive) | GI50 (UACC-257): > 100 µM (inactive) | GI50 (OVCAR-4): 48.3 µM (inactive) | GI50 (UACC-62): 40.9 µM (inactive) | GI50 (NCI-H23): 59.3 µM (inactive) | GI50 (PC-3): 34.4 µM (inactive) | GI50 (EKVX): 16.6 µM (inactive) | GI50 (OVCAR-8): 58.9 µM (inactive) | GI50 (OVCAR-3): 41.3 µM (inactive) | GI50 (SW-620): 47.3 µM (inactive) | GI50 (HOP-62): > 100 µM (inactive) | GI50 (BT-549): 51.5 µM (inactive) | GI50 (SK-OV-3): > 100 µM (inactive) | GI50 (SNB-19): > 100 µM (inactive) | GI50 (IGROV-1): 31.9 µM (inactive) | GI50 (RPMI-8226): 42.9 µM (inactive) | GI50 (786-0): 80.2 µM (inactive) | GI50 (HCT-15): 53.3 µM | GI50 (CAKI-1): 45.8 µM (inactive) | GI50 (RXF 393): 51.8 µM (inactive) | GI50 (SR): 25.6 µM (inactive) | GI50 (NCI-H460): 54.2 µM (inactive) | GI50 (SN12C): 70.6 µM (inactive) | GI50 (A498): 33.9 µM (inactive) | GI50 (NCI-H226): 40 µM (inactive) | GI50 (U-251): 65.9 µM (inactive) | GI50 (SK-MEL-5): 12.2 µM (inactive) | GI50 (HCT-116): 34.4 µM (inactive) | GI50 (MOLT-4): 34.3 µM (inactive) | GI50 (ACHN): 30.2 µM (inactive) | GI50 (HL-60): 26.7 µM (inactive) | GI50 (HCC 2998): 73.3 µM (inactive) | GI50 (SF-295): 72.6 µM (inactive) | GI50 (LOX IMVI): 35.5 µM (inactive) | GI50 (HT-29): 46 µM (inactive) | GI50 (COLO 205): 33.7 µM (inactive) | GI50 (KM12): 37.8 µM (inactive) | GI50 (MCF7): 47.9 µM (inactive) | GI50 (T47D): 77.1 µM (inactive) | GI50 (Malme-3M): > 100 µM (inactive) | GI50 (SK-MEL-2): > 100 µM (inactive) | GI50 (MDA-MB-231): 41.5 µM (inactive) | GI50 (K562): 38.4 µM (inactive) | GI50 (SNB-75): 18.7 µM (inactive) | GI50 (HOP-92): 21.8 µM (inactive) | GI50 (NCI/ADR-RES): 61.2 µM (inactive) | GI50 (SF-268): 57.3 µM (inactive) | GI50 (UO-31): 18.5 µM (inactive) | GI50 (SK-MEL-28): > 100 µM (inactive) | GI50 (Hs-578T): 27.7 µM (inactive) | GI50 (MDA-MB-435): 53.2 µM (inactive) | GI50 (MDA-N): 68.2 µM (inactive) | GI50 (NCI-H522): 50.9 µM (inactive) | GI50 (SF-539): 46.3 µM (inactive) | GI50 (A549): 59.4 µM (inactive) | GI50 (OVCAR-5): 54.7 µM (inactive) | GI50 (M14): > 100 µM (inactive) | GI50 (TK-10): 53.6 µM (inactive)

O=C(Nn1cc(F)c(=O)[nH]c1=O)C12CC3CC(CC(C3)C1)C2
GI50 (DU-145): 8.3 µM (inactive) | GI50 (CCRF-CEM): 13 µM (inactive) | GI50 (UACC-257): 22 µM (inactive) | GI50 (OVCAR-4): 10.2 µM (inactive) | GI50 (UACC-62): 7.59 µM (inactive) | GI50 (NCI-H23): 7.73 µM (inactive) | GI50 (PC-3): 10.7 µM (inactive) | GI50 (EKVX): 24 µM (inactive) | GI50 (OVCAR-8): 22.6 µM (inactive) | GI50 (OVCAR-3): 10.4 µM (inactive) | GI50 (SW-620): 15.5 µM (inactive) | GI50 (HOP-62): 12 µM (inactive) | GI50 (BT-549): 17.5 µM (inactive) | GI50 (SK-OV-3): 18.4 µM (inactive) | GI50 (SNB-19): 28.6 µM (inactive) | GI50 (IGROV-1): 6.61 µM (inactive) | GI50 (RPMI-8226): 6.93 µM (inactive) | GI50 (786-0): 10.7 µM (inactive) | GI50 (HCT-15): 6.56 µM | GI50 (CAKI-1): 4.6 µM (inactive) | GI50 (RXF 393): 16.4 µM (inactive) | GI50 (SR): 4.05 µM (inactive) | GI50 (NCI-H460): 1.91 µM (inactive) | GI50 (SN12C): 11.5 µM (inactive) | GI50 (A498): 7.24 µM (inactive) | GI50 (NCI-H226): 38.9 µM (inactive) | GI50 (U-251): 19.3 µM (inactive) | GI50 (SK-MEL-5): 3.2 µM (inactive) | GI50 (HCT-116): 5.77 µM (inactive) | GI50 (MOLT-4): 16 µM (inactive) | GI50 (ACHN): 10.7 µM (inactive) | GI50 (HL-60): 9.46 µM (inactive) | GI50 (HCC 2998): 0.646 µM (active) | GI50 (SF-295): 26.6 µM (inactive) | GI50 (LOX IMVI): 7.8 µM (inactive) | GI50 (HT-29): 8.17 µM (inactive) | GI50 (COLO 205): 9.75 µM (inactive) | GI50 (KM12): 6.27 µM (inactive) | GI50 (MCF7): 5.22 µM (inactive) | GI50 (T47D): 20.2 µM (inactive) | GI50 (Malme-3M): 6.73 µM (inactive) | GI50 (SK-MEL-2): 23.2 µM (inactive) | GI50 (MDA-MB-231): 12.7 µM (inactive) | GI50 (K562): 14.6 µM (inactive) | GI50 (SNB-75): 24.8 µM (inactive) | GI50 (HOP-92): 8.69 µM (inactive) | GI50 (NCI/ADR-RES): 24.2 µM (inactive) | GI50 (SF-268): 29.2 µM (inactive) | GI50 (UO-31): 8.2 µM (inactive) | GI50 (SK-MEL-28): 12.9 µM (inactive) | GI50 (Hs-578T): 25.4 µM (inactive) | GI50 (MDA-MB-435): 10 µM (inactive) | GI50 (MDA-N): 8.97 µM (inactive) | GI50 (NCI-H522): 16.6 µM (inactive) | GI50 (SF-539): 2.21 µM (inactive) | GI50 (A549): 6.27 µM (inactive) | GI50 (OVCAR-5): 21.7 µM (inactive) | GI50 (M14): 15.1 µM (inactive) | GI50 (TK-10): 18.1 µM (inactive)

CC1OC(OC2C(O[C@H]3CC[C@@]4(C)C(=CC[C@H]5[C@@H]6C[C@@H]7O[C@]8(CC[C@@H](C)CO8)[C@@H](C)[C@@H]7[C@@]6(C)CC[C@@H]54)C3)OC(CO)C(OC3OC(CO)C(O)C3O)C2O)C(O)C(O)C1O (some centres not stated)
GI50 (DU-145): 0.984 µM (active) | GI50 (CCRF-CEM): 0.16 µM (active) | GI50 (UACC-257): 0.908 µM (active) | GI50 (OVCAR-4): 0.931 µM (active) | GI50 (UACC-62): 0.805 µM (active) | GI50 (NCI-H23): 0.836 µM (active) | GI50 (PC-3): 0.776 µM (active) | GI50 (EKVX): 0.885 µM (active) | GI50 (OVCAR-8): 0.535 µM (active) | GI50 (OVCAR-3): 0.918 µM (active) | GI50 (SW-620): 0.766 µM (active) | GI50 (HOP-62): 0.897 µM (active) | GI50 (BT-549): 0.975 µM (active) | GI50 (SK-OV-3): 0.94 µM (active) | GI50 (SNB-19): 0.762 µM (active) | GI50 (IGROV-1): 0.847 µM (active) | GI50 (RPMI-8226): 0.724 µM (active) | GI50 (786-0): 0.673 µM (active) | GI50 (HCT-15): 0.895 µM | GI50 (CAKI-1): 0.867 µM (active) | GI50 (RXF 393): 0.865 µM (active) | GI50 (SR): 0.695 µM (active) | GI50 (NCI-H460): 0.438 µM (active) | GI50 (SN12C): 0.571 µM (active) | GI50 (A498): 0.881 µM (active) | GI50 (NCI-H226): 0.867 µM (active) | GI50 (U-251): 0.619 µM (active) | GI50 (SK-MEL-5): 0.746 µM (active) | GI50 (HCT-116): 0.851 µM (active) | GI50 (MOLT-4): 0.785 µM (active) | GI50 (ACHN): 0.855 µM (active) | GI50 (HL-60): 0.964 µM (active) | GI50 (HCC 2998): 0.366 µM (active) | GI50 (SF-295): 0.745 µM (active) | GI50 (LOX IMVI): 0.521 µM (active) | GI50 (HT-29): 0.805 µM (active) | GI50 (COLO 205): 0.6 µM (active) | GI50 (KM12): 0.912 µM (active) | GI50 (MCF7): 0.774 µM (active) | GI50 (T47D): 1.12 µM (active) | GI50 (Malme-3M): 0.877 µM (active) | GI50 (SK-MEL-2): 1.01 µM (active) | GI50 (MDA-MB-231): 0.8 µM (active) | GI50 (K562): 1.23 µM (inactive) | GI50 (SNB-75): 0.724 µM (active) | GI50 (HOP-92): 1.01 µM (active) | GI50 (NCI/ADR-RES): 0.91 µM (active) | GI50 (SF-268): 0.841 µM (active) | GI50 (UO-31): 0.798 µM (active) | GI50 (SK-MEL-28): 0.605 µM (active) | GI50 (Hs-578T): 0.805 µM (active) | GI50 (MDA-MB-435): 0.869 µM (active) | GI50 (MDA-N): 0.752 µM (active) | GI50 (NCI-H522): 0.995 µM (active) | GI50 (SF-539): 0.644 µM (active) | GI50 (A549): 0.634 µM (active) | GI50 (OVCAR-5): 0.8 µM (active) | GI50 (M14): 0.745 µM (active) | GI50 (TK-10): 0.989 µM (active)

— ChEMBL document CHEMBL1201862, “PubChem BioAssay data set” (2004)
